We go through three compounds from patent US10188642B2, “Pharmacologically active compounds” (Cancer Research Technology Limited, priority 2012, dated 2019).

The target of the experiment is full length MPS1 (Homo sapiens (Human), UniProt P33981). Nature of the experiment: Measurement of inhibition of MPS1 kinase (Caliper EZ reader mobility shift assay). It counts as biochemical. The method, then: Measurement of Inhibition of MPS1 Kinase
(5 μM), ATP(10 μM), either DMSO (1% v/v) or the test compound (in the range 0.25 nM-100 μM in 1% DMSO) and assay buffer (50 mM HEPES (pH 7.0), 0.02% NaN3, 0.01% BSA, 0.1 mM Orthovandate, […], 1 μM DTT, Roche protease inhibitor). The reaction was carried out for 60 min at room temperature and stopped by the addition of buffer (10 μl) containing 20 mM EDTA, 0.05% (v/v) Brij-35, in 0.1M HEPES-buffered saline (Free acid, Sigma, UK). The plate was read on a Caliper EZ reader II (Caliper Life Sciences).
The reader provides a Software package (‘Reviewer’) which converts the peak heights into % conversion by measuring both product and substrate peak and also allows selection of control well which represent 0% and 100% inhibition respectively. The % inhibition of the compounds is calculated relative to the means of selected control wells. IC50s are determined by testing the compounds at a range of concentrations from 0.25 nM-100 μM. The % inhibitions at each concentration are then fitted to a 4 parameter logistic fit: y=(a+((b−a)/(1+((c/x^d)))) where a=asym min, b=asym max, c=IC50 and d=hill coefficient

The mark [1] stands for this setting: full length MPS1 12.5 nM or 3 nM, H236 peptide 5 μM, ATP 10 μM, 60 min at room temperature, read-out: MPS1 IC50.

Read-outs that look alike come from different tables or passages of the source.

full length MPS1, sequence (P33981 whole entry): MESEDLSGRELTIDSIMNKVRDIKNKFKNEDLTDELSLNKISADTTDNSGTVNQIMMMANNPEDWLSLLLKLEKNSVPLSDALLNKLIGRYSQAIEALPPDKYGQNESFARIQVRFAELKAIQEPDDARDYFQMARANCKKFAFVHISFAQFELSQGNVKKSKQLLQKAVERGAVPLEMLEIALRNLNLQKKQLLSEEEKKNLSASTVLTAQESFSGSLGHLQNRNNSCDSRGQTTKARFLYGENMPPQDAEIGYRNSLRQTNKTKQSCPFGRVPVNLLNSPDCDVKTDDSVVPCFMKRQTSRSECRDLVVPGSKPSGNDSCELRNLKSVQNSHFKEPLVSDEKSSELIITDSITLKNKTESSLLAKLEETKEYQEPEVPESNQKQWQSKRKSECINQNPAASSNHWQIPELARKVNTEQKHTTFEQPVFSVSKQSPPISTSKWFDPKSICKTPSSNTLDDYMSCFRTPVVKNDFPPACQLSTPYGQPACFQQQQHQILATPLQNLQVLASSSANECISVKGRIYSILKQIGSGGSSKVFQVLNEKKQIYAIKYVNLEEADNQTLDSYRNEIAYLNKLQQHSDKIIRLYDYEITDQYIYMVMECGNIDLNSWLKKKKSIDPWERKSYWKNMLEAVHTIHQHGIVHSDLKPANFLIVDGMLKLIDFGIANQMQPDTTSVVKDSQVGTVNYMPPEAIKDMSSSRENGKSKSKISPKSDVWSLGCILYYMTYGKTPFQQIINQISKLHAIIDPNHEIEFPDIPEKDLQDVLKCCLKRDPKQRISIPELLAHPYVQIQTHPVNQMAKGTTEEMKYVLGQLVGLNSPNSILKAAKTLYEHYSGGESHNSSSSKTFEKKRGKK

`COCCn1cc(-c2ccc3cnc(Nc4ccc(-c5cnn(C)c5CO)cc4OC)cc3c2)cn1` [Example 32, (4-(3-Methoxy-4-((6-(1-(2-methoxyethyl)-1H-pyrazol-4-yl)isoquinolin-3-yl)amino)phenyl)-1-methyl-1H-pyrazol-5-yl)methanol]: under setting [1], the concentration for half-maximal inhibition (IC50) is 3 nM.
For `COc1cc(-c2cnc(C)n2C)ccc1Nc1cc2cc(-c3cnn(CC(O)CO)c3)ccc2cn1` (racemic) [Example 109, Racemic 3-(4-(3-((4-(1,2-Dimethyl-1H-imidazol-5-yl)-2-methoxyphenyl)amino)isoquinolin-6-yl)-1H-pyrazol-1-yl)propane-1,2-diol], the IC50 was determined as 3 nM.
For `CNC(=O)c1ccc2cnc(Nc3ccc(-c4cnn(C)c4)cc3OC)cc2n1` [Example 108, 7-(2-Methoxy-4-(1-methyl-1H-pyrazol-4-yl)phenylamino)-N-methyl-1,6-naphthyridine-2-carboxamide], the IC50 under setting [1] is 7 nM.
